Source: publication PMC11214964 (Biomolecules & Therapeutics, 2024)
Where two headings read alike, the source gives them in different places.

Biological target: CB1R (Homo sapiens, UniProt P21554)
Assay: cell-based
Type: binding

Sequence of CB1R (P21554 whole entry): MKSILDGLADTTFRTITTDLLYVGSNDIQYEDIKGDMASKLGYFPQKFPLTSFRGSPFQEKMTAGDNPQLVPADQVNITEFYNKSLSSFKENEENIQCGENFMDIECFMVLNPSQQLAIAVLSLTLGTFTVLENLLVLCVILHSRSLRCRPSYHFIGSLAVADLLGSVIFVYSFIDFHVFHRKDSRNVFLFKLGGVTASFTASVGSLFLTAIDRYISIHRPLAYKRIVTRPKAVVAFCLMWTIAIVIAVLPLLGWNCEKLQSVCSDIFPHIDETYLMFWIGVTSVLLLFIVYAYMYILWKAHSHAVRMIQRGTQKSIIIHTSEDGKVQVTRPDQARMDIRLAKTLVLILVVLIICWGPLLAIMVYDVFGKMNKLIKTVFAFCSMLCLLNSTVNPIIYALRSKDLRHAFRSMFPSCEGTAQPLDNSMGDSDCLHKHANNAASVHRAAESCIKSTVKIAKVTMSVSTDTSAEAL

| Compound | Ki [nM] | Ki (read-out: Ki (nM), binding affinity for CB1R, competition with 3 nM [3H]-SR141716A, 6 h at 4°C, Ki=IC50/(1+[D]/Kd)) [nM] |
| --- | --- | --- |
| N#Cc1c(Oc2cccc(OS(=O)(=O)CCCC(F)(F)F)c2)cccc1C(F)(F)F [Compound 29, 3-[2-cyano-3-(trifluoromethyl)phenoxy]phenyl-4,4,4-trifluoro-1-butanesulfonate] | 18.1 |  |
| AM-1248 [Compound 10] |  | 104 |
